Measurements as given in patent US20220251153A1, “PEPTIDES FOR THE TREATMENT OF RENAL DISORDERS” (THE GEORGE WASHINGTON UNIVERSITY, priority 2019, published 2022).

Columns and labels:
Type in all cases: in vivo, mouse
[1] = system: C57Bl/6 mice with unilateral ureter obstruction (UUO); experiment: Sirius Red staining of kidney sections, UUO model of renal fibrosis; conditions: 3 mg/kg subcutaneously the day before and daily for 14 days after UUO
Description: The effect of ND-13 on renal disease was then assessed. Unilateral ureter obstruction (UUO) was chosen as a model of renal disease to determine if ND-13 has a protective effect. The UUO model is an known model of human and animal kidney disease, which mimics the effects of chronic kidney disease and diabetes (i.e., diabetic nephropathy), due to its capability of generating a progressive renal (tubule interstitial) fibrosis and has advantages of good reproducibility, a short time course and the presence of a contralateral kidney as control.
C57Bl/6 control mice as well as DJ-1 knockout mice were subjected to UUO in order to examine mechanisms involved in renal tubule interstitial fibrosis in vivo and to determine if ND-13 has a protective effect against renal disease. DJ-1 knockout mice used herein were from the original F2 hybrid strain (129/SvXC57BL/6J) that contained the mutated DJ-1 allele (DJ-1−/−) backcrossed to wild-type C57BL/6J for >20 generations and genotyped. […]
Renal interstitial fibrosis was assessed in the mice by Sirius Red staining. […] Sirius Red staining was examined with an Olympus BX-41 microscope and the amount of collagen in the kidney was quantified by ImageJ software. Two images of about 70% of the renal cortical sections were used in the quantification. […]

[2] = system: C57Bl/6 mice with unilateral ureter obstruction (UUO); experiment: Urinary NGAL ELISA after UUO; conditions: urine 14 days after UUO, 3 mg/kg subcutaneously daily
Source text: (§1) C57Bl/6 control mice as well as DJ-1 knockout mice were subjected to UUO in order to examine mechanisms involved in renal tubule interstitial fibrosis in vivo and to determine if ND-13 has a protective effect against renal disease. DJ-1 knockout mice used herein were from the original F2 hybrid strain (129/SvXC57BL/6J) that contained the mutated DJ-1 allele (DJ-1−/−) backcrossed to wild-type C57BL/6J for >20 generations and genotyped. Prior to UUO, ND-13 peptide and scrambled control peptide (3 mg/kg diluted in […] of saline) were injected subcutaneously to C57Bl/6 and DJ-1 knockout mice the day before performing the complete UUO. For UUO surgery, the procedure was performed as follows. Briefly, mice were anesthetized with isofluorane (3-5% for induction and 1-3% for maintenance) and divided into two experimental groups: the UUO group and the sham operation group. In the UUO group, mice were shaved on the left side of the abdomen, a vertical incision was made through the skin with a scalpel and the skin was retracted. A second incision was made through the peritoneum to expose the kidney. The left ureter was ligated twice 15 mm below the renal pelvis with surgical silk and the ureter was then severed between the two ligatures. Then, the ligated kidney was placed gently back into its correct anatomical position and sterile saline was added to replenish loss of fluid. […]

[3] = system: DJ-1 knockout mice with unilateral ureter obstruction (UUO); experiment: Urinary NGAL ELISA after UUO; conditions: urine 14 days after UUO, 3 mg/kg subcutaneously daily
Source text: as §1

[4] = system: TNF-alpha, IL-6, Col1a1 and TGF-beta mRNA in kidneys of C57Bl/6 mice with UUO; experiment: qRT-PCR of renal inflammatory and fibrotic marker mRNA after UUO; conditions: 14 days after UUO, normalized by GAPDH
Source text: (§2) C57Bl/6 control mice as well as DJ-1 knockout mice were subjected to UUO in order to examine mechanisms involved in renal tubule interstitial fibrosis in vivo and to determine if ND-13 has a protective effect against renal disease. DJ-1 knockout mice used herein were from the original F2 hybrid strain (129/SvXC57BL/6J) that contained the mutated DJ-1 allele (DJ-1−/−) backcrossed to wild-type C57BL/6J for >20 generations and genotyped. Prior to UUO, ND-13 peptide and scrambled control peptide (3 mg/kg diluted in […] of saline) were injected subcutaneously to C57Bl/6 and DJ-1 knockout mice the day before performing the complete UUO. For UUO surgery, the procedure was performed as follows. Briefly, mice were anesthetized with isofluorane (3-5% for induction and 1-3% for maintenance) and divided into two experimental groups: the UUO group and the sham operation group. In the UUO group, mice were shaved on the left side of the abdomen, a vertical incision was made through the skin with a scalpel and the skin was retracted. A second incision was made through the peritoneum to expose the kidney. The left ureter was ligated twice 15 mm below the renal pelvis with surgical silk and the ureter was then severed between the two ligatures. Then, the ligated kidney was placed gently back into its correct anatomical position and sterile saline was added to replenish loss of fluid. The incisions were sutured and mice were individually caged. Buprenorphine was used as an analgesic. 24 hours after UUO surgery, the ND-13 peptide and scrambled control peptide (3 mg/kg diluted in […] of saline) were injected subcutaneously to C57Bl/6 and DJ-1 knockout mice and then injected every day thereafter for 14 days following UUO. Untreated normal C57Bl/6 mice served as a control. After 14 days, urine was collected and the mice were sacrificed. Tissues, including the kidneys, were obtained for analyses.
(§3) Next, the effect of ND-13 on mRNA expression of inflammatory and fibrotic markers in the kidneys of mice with UUO was tested. Briefly, RNA was extracted from whole renal tissue harvested from ND-13-treated C57Bl/6 and DJ-1 knockout mice 14 days after the UUO procedure. RNA extracted from untreated C57Bl/6 mice served as the control. The extracted RNA was subjected to qRT-PCR using standard methods. The mRNA expression of TNF-alpha (tumor necrosis factor alpha), IL-6 (Interleukin 6), Col1a1 (collagen, type I, alpha 1) and TGF-beta (transforming growth factor beta) were quantified by qRT-PCR in mice from each group. Data were normalized by expression of the house keeping gene GAPDH (glyceraldehyde 3-phosphate dehydrogenase). […] The increased renal expressions of TNF alpha and IL-6, and TGF-beta associated with UUO was decreased by ND-13 in both C57Bl/6 mice (FIGS. 3A, 3B, and 3D) and DJ-1 knockout mice (FIGS. 3E, 3F, and […]).

[5] = system: TNF-alpha, IL-6, Col1a1 and TGF-beta mRNA in kidneys of DJ-1 knockout mice with UUO; experiment: as above; conditions: 14 days after UUO, normalized by GAPDH
Source text: as §2, §3

Question: For YGRKKRRKGAEEMETVIPVD [ND-13], which “renal interstitial fibrosis (collagen, Sirius Red staining)” value [1] is on record?
Answer: Its value is “prevented fibrosis”.

Question: And the “urinary NGAL (marker of renal damage)” value [2]?
Answer: The value was “decreased urinary NGAL to control levels”.

Question: What about the “urinary NGAL (marker of renal damage)” value [3] of the same sequence?
Answer: The value was “not protected”.

Question: What about the “renal mRNA expression of Col1a1” value [4] of the same sequence?
Answer: Its value is “decreased”.

Question: What about the “renal mRNA expression of IL-6” value [4] of the same sequence?
Answer: Its value is “decreased”.

Question: And the “renal mRNA expression of TGF-beta” value [4]?
Answer: The value was “decreased”.

Question: What about the “renal mRNA expression of TNF-alpha” value [4] of the same sequence?
Answer: The value was “decreased”.

Question: And the “renal mRNA expression of Col1a1” value [5]?
Answer: Its value is “not DJ-1 knockout mice”.

Question: And the “renal mRNA expression of IL-6” value [5]?
Answer: The value was “decreased”.

Question: And the “renal mRNA expression of TGF-beta” value [5]?
Answer: Its value is “decreased”.

Question: And the “renal mRNA expression of TNF-alpha” value [5]?
Answer: Its value is “decreased”.
